The results in this text go back to US9296751B1, “Indolizino[3,2-c]quinoline derivatives, pharmaceutically acceptable salt thereof, preparation method thereof and pharmaceutical composition for treatment of cystic fibrosis containing the same as active ingredient” (INDUSTRY-ACADEMIC COOPERATION FOUNDATION, YONSEI UNIVERSITY, priority 2014, dated 2016).

Data set [1] relates to Adipose-derived stem cells (ASC) and melanoma cells (B16 melanoma cells). Kind of data set: Cytotoxicity by MTT assay. It is filed as cell-based. The note with it: at a high concentration of 100 μM, FIG. 3 and FIG. 4. As to the method: (§1) Adipose-derived stem cells (ASC) and melanoma cells (B16 melanoma cells) are cultured in high-glucose Dulbecco's modified Eagle's medium (DMEM) with 10% fetal bovine serum (FBS) introduced thereto. Each type of cells is cultured in an incubator under the conditions of 37° C. and 5% CO2.
(§2) Cell survivability and cytotoxicity are determined in a 96-well plate by MTT assay. Each type of cells is implanted into a 6-well plate in a number of 3×10^4/well (ASC) and 4×10^4/well and cultured for 24 hours. Then, media change into high-glucose DMEM is carried out for both ASC and B16 and cultured overnight. After starvation, the cells are treated with each of the compounds according to Examples at a different concentration (0.1, 1, 10, 50, 100 μM), and further incubated for 24 hours and 48 hours under the conditions of 37° C. and 5% CO2. Then, MTT solution (5 mg/ml in PBS) is added to each well in an amount corresponding to 1/20 of the media volume, and incubation is carried out at 37° C. for 2 hours so that the cells are colored. After that, the supernatant is removed and dimethyl sulfoxide is added to carry out discoloration. The solution is determined by using an enzyme-linked immunosorbent assay (ELISA) reader at a wavelength of 595 nm.
On the technique in general: Formazan colour is commonly taken as a measure of viable cells.

The subject of data set [2] is Adipose-derived stem cells. The data set can be described thus: Migration assay (mechanical wound, Incucyte zoom). It is filed as cell-based. As to conditions: 0.1, 1, 10, 50 μM, 24 and 48 hours; FIG. 5 and FIG. 6. As to the method:
Adipose-derived stem cells are implanted into a 96-well plate in a number of 3×10^4/well and cultured for 24 hours. Then, media change into high-glucose DMEM is carried out and the cells are cultured overnight. After starvation, a mechanical wound is made and the cells are treated with each of the compounds according to Examples at a different concentration (0.1, 1, 10, 50 μM). Next, the cells are incubated for 24 hours and 48 hours under the conditions of 37° C. and 5% CO2. Then, the Incucyte zoom (Essen Bioscience, USA) is photographed from the time point of treatment with each compound at an interval of 1 hour to analyze the migration of ASC.

Data set [3] has as its system Adipose-derived stem cells (ASC). The data set can be described thus: Proliferation/viability MTT assay, adipose-derived stem cells. It is filed as cell-based. The note with it: 0.1-100 μM, 24 and 48 hours, FIG. 2. On the procedure: as §1, §2
In data set [4] the target is T1, human cystic fibrosis conductance transmembrane regulator (CFTR) (Homo sapiens, UniProt P13569).
T1 construct: expressed in transfected cells; host or cells: FRT cells (Fischer rat thyroid epithelial cells)
The data set can be described thus: Effect upon CFTR chloride ion channel activity (YFP fluorescence quenching by iodide influx in FRT cells). It is filed as cell-based. The note with it: for Emax at 30 µM: FRT, 10 min, final concentration of 30 μM, reaction for 10 minutes, ratio based on the CFTR activity maximized by forskolin. As to the method: FRT cells expressing […] specific to human cystic fibrosis conductance transmembrane regulator (CFTR) and iodide ions are cultured in the Coon's modified F-12 culture medium for 48 hours on a 96-well plate. Each well of the plate containing the cultured cells is washed three times with 200 μl of PBS buffer, and then 100 μl of PBS buffer is added to each well. The indolizino[3,2-c]quinoline derivative according to each Example is introduced to each well to a final concentration of 30 μM, followed by reaction for 10 minutes. After the completion of the reaction, the 96-well is mounted to a FLUOstar Omega microplate reader (BMG LABTECH) and 100 μl of NaI solution is added to each well. Then, YFP fluorescence reduced by the iodide ions introduced to the cells through CFTR is recorded at an interval of 0.4 seconds for 24 seconds in total, thereby evaluating the effect of each compound upon CFTR activity.
The effect of each indolizino[3,2-c]quinoline derivative upon CFTR chloride ion channel activity is calculated as an activity ratio based on the CFTR activity maximized by a well-known CFTR agonist, forskolin.

The melting point is the temperature, or range, at which the solid turns liquid. The Emax is the greatest response seen or fitted, relative to the assay's reference.

T1 sequence (P13569 whole entry): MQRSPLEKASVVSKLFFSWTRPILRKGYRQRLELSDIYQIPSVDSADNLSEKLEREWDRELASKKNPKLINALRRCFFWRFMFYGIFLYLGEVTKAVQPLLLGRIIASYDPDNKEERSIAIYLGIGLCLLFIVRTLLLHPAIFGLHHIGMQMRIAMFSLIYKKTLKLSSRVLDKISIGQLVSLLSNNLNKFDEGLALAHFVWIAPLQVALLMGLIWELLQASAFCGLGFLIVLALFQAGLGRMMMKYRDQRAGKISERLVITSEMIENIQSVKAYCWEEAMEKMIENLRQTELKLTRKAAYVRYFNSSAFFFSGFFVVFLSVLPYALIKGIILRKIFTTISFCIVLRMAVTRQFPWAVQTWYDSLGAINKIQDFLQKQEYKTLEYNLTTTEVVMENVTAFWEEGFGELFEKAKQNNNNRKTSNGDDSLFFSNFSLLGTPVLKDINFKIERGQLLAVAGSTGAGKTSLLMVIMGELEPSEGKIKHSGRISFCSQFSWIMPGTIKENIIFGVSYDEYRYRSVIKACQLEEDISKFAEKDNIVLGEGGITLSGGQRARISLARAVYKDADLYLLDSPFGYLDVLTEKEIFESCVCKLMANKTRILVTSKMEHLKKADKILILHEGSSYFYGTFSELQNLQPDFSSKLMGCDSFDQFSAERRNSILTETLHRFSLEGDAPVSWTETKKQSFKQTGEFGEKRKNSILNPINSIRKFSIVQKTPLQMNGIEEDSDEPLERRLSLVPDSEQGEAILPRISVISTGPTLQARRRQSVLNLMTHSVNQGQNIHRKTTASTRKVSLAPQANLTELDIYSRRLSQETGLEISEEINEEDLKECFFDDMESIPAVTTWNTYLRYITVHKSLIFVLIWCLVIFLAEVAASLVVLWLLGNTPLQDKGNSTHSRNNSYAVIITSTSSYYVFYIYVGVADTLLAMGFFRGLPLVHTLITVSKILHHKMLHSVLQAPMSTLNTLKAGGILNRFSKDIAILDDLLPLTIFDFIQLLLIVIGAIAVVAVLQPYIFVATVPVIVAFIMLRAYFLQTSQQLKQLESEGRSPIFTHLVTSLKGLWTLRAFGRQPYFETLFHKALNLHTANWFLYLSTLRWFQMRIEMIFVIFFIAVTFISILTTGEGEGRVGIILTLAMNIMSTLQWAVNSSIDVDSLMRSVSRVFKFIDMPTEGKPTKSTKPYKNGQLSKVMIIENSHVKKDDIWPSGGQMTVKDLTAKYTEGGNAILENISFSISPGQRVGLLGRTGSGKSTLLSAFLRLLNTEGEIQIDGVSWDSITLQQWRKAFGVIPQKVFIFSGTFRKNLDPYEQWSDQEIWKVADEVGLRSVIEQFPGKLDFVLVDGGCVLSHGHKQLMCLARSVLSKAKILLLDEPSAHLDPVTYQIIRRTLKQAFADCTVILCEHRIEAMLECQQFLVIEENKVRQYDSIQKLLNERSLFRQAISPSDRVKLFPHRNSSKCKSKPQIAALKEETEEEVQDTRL

In turn, `Brc1ccc2cc3c4ccccc4nc(-c4cccc5ccccc45)c3n2c1` [Example 27, 9-Bromo-6-(4naphthalen-1-yl)indolizino[3,2-c]quinoline] yielded a melting point of 212 to 212.7 °C. For the same compound, in data set [1], the cytotoxicity entry is on record as “no toxicity”. Further, the “migration ability of adipose-derived stem cells” value in data set [2] is on record as “has migration ability”. Besides, the “proliferation of adipose-derived stem cells” value (“proliferation” below) in data set [3] is on record as “highly effective”.
`Cc1cccn2c1cc1c3ccccc3nc(-c3ccco3)c12` [Example 23, 6-(Furan-2-yl)-11-methylindolizino[3,2-c]quinoline] had a melting point of 112.4 to 113.2 °C. In addition, the “proliferation” value in data set [3] is given as “highly effective”.
Turning to `c1ccc2c(-c3nc4ccccc4c4cc5ccccn5c34)cccc2c1` [Example 12, 6-(Naphthalen-1-yl)indolizino[3,2-c]quinoline], the melting point lay in the range of 205.6 to 206.3 °C. In addition, the cytotoxicity entry in data set [1] is recorded as “no toxicity”. The Emax at 30 µM in data set [4] worked out at 44%. The “migration ability of adipose-derived stem cells” value in data set [2] is “has migration ability”. Moreover, the “proliferation” value in data set [3] is reported as “highly effective”.
Consider `c1ccc(-c2nc3ccccc3c3cc4ccccn4c23)nc1` [Example 14, 6-(Pyridin-2-yl)indolizino[3,2-c]quinoline], for which the melting point is 177.9 to 178.3 °C. For the same compound, the “CFTR activity ratio, result in words” value in data set [4] (30 μM, comment on Table 2) is “high activity ratio”. Moreover, in data set [4], the Emax at 30 µM is 82%. Moreover, in data set [3], the “proliferation” value was “highly effective”.
